Experimental data published in patent US20150216794A1, “METHODS OF TREATING PAIN ASSOCIATED WITH OSTEOARTHRITIS OF A JOINT WITH A TOPICAL FORMULATION OF A SPIRO-OXINDOLE COMPOUND” (IVAX International GmbH, priority 2014, published 2015).
“And” between values parts separate entries of the source, which are not always exact repeats. Identical values can stand only once.

How the values were obtained:
[1] = minipig: tissue distribution of radioactivity and unchanged compound; type: in vivo, Göttingen minipig; conditions: for concentration at 24 h: male, Göttingen, minipig, topical, 70 mg spiro-oxindole compound equivalents ointment/kg
Description: The following tissues/organs were removed from the remaining carcass:
The urinary bladder from each animal was rinsed with saline and the washings discarded. Each section of the gastrointestinal tract wall was washed to remove contents (which were retained for analysis) prior to analysis. Remaining carcasses were discarded.

[2] = domestic pig joint penetration study: concentration in liver tissue; type: in vivo
Method: This study was conducted to evaluate the joint penetration, systemic plasma exposure and tissue distribution of the spiro-oxindole compound in domestic pigs following topical administration of a pharmaceutical composition utilized in the methods of the invention. Fifteen female pigs were used in this study with three pigs in each group. Beginning on Day 1, a pharmaceutical composition of the invention was topically applied to the left radiocarpal joint (carpus) and tibiotarsal joint (hock) twice daily (bid) for 17 days (34 applications) for Groups 1-4 and once daily (qd) for 17 days (17 applications) for Group 5. Pre-dose blood samples (prior to morning dosing) was collected on Days 2, 7, 10, 14 and 17. A full pharmacokinetic sampling was performed on Day 17 (post am dosing) at the following time points: 1, 2, 4, 8 and 12 hr. On the day of necropsy, Day 18, blood was collected prior to euthanasia, each pig was humanely euthanized and dorsal skin and muscle, liver, kidney, heart, lung, brain, intestine, fat, ovaries, urinary bladder, sciatic nerve, and skin, muscle, synovial membrane, and synovial fluid from all 4 joints (2 treated, left carpus and hock, and 2 untreated, right carpus and hock) was collected.
The dose volume (μL/cm^2) for the test pharmaceutical compositions was 3.0 μL/cm^2 for Groups 1, 2, 3 and 5 and 1.0 μL/cm^2 for Group 4.
The following tissue samples were collected after euthanasia: • Dorsal skin and muscle (from the mid-back) • Liver—Left Medial Lobe • Kidney—Right • Heart • Lung—Right diaphragmatic lobe • Brain—Right cerebral hemisphere • Intestine—mid-jejunum • Duodenum (10-15 cm length) from all 6 animals in Groups 1 and 2 • Fat • Ovary—Right • Urinary bladder • Sciatic nerve from both legs • Skin, muscle underlying site of administration and synovial membrane of all 4 joints (treated left carpus and hock and untreated right carpus and hock)

[3] = minipig repeated dermal dosing: spiro-oxindole compound in plasma (LC-MS/MS); type: in vivo, Göttingen minipig; conditions: minipigs
Method: The study was carried out on minipigs to obtain information on plasma pharmacokinetics, tissue distribution and accumulation, excretion and metabolic profile of the spiro-oxindole compound after daily dermal administration of a pharmaceutical composition of the invention for 20 consecutive days followed by a single dose of [^14C]-spiro-oxindole compound Day 21.
Midazolam was administered on Days 0 and 20 to 3 male minipigs by bolus intravenous injection at a dose level 0.5 mg/kg.
The [^14C]-spiro-oxindole composition was prepared as follows:
Dosages of test formulations were applied with foil and spread using nitrile gloves to form a thin uniform layer to the treatment site.

[4] = molecular target: NaV1.7 (Homo sapiens, UniProt Q15858); experiment: block of NaV1.7 (inactivated vs resting state); type: biochemical
NaV1.7, sequence (Q15858 whole entry): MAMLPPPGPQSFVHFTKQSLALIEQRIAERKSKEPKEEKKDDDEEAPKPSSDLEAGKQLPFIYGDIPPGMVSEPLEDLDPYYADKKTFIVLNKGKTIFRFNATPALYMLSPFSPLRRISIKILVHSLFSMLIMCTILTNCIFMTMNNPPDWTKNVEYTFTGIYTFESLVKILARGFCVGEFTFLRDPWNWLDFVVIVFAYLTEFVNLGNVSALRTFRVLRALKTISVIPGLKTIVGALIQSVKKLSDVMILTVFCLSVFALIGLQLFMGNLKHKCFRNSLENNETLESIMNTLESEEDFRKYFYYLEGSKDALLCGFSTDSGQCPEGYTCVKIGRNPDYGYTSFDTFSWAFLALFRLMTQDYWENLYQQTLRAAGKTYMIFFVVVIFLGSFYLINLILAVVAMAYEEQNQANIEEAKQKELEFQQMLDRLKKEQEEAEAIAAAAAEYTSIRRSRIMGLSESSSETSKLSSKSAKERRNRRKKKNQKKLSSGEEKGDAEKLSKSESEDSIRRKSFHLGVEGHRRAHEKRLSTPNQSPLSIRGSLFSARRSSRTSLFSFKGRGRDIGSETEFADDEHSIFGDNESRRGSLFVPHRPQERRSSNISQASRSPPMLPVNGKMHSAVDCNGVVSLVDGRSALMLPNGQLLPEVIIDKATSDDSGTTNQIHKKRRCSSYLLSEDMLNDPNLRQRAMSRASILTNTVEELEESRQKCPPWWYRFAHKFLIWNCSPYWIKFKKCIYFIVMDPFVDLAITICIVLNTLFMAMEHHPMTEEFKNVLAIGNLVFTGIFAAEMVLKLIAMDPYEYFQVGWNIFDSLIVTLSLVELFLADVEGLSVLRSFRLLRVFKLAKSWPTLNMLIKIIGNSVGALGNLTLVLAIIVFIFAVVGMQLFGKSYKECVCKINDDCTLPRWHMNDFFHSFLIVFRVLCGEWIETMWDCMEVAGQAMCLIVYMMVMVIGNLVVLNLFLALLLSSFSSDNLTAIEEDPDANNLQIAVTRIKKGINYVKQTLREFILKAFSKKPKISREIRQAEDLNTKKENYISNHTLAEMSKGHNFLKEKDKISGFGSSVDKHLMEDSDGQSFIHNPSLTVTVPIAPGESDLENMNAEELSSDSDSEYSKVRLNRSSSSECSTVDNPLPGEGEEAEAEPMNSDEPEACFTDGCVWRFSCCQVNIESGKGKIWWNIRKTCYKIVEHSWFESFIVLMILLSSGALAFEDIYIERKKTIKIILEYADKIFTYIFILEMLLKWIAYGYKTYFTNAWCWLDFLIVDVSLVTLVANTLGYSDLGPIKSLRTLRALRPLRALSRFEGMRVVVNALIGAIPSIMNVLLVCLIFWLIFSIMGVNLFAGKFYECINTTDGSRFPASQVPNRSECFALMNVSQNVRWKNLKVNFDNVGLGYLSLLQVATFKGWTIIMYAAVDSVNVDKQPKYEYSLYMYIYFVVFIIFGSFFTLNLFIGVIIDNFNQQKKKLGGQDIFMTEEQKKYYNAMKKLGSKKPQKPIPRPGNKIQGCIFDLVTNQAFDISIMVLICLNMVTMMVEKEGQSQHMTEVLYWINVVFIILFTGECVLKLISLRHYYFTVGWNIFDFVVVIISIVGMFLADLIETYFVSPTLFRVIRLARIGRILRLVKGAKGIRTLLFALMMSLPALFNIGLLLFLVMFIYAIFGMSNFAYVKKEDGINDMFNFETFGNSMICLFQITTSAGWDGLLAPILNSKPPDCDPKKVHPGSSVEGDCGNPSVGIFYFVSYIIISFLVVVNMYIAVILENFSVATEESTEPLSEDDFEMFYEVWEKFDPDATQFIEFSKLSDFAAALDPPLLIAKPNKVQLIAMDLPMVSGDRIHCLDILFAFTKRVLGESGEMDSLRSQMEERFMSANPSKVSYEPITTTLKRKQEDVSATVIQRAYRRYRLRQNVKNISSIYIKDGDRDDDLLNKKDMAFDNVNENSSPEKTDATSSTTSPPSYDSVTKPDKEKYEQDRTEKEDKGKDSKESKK
Description: NaV1.7 is expressed primarily in the peripheral nervous system in both sensory and sympathetic neurons (Raymond, C. K., et al., op. cit.). Loss-of-function mutations in SCN9A (the gene encoding the alpha subunit of the NaV1.7 sodium channel) cause a human condition known as congenital indifference to pain characterized by an inability to perceive pain (Cox, J. J., et al., Nature (2006), 444:894-98; Goldberg, Y. P., et al., Clin Genet (2007), 71:311-9). Gain-of-function mutations in SCN9A are associated with inherited erythromelalgia (IEM) (Drenth, J. P., et al., J Invest Dermatology (2005), 124:1333-8), which is characterized by spontaneous or easily evoked severe pain. Furthermore, up to 29% of biopsy-proven cases of idiopathic small-fiber neuropathy manifesting mainly as distal severe pain (Faber, C. G., et al., Ann Neurol (2012), 71:26-39) are associated with gain-of-function NaV1.7 channel mutations.

[5] = minipig: metabolite profile of urine and bile (UPLC); type: in vivo, Göttingen minipig; conditions: none consistent with spiro-oxindole compound
Description: Attempts to separate radioactive components using HPLC with radioactivity detection present in plasma, liver and excreta were unsuccessful due to low radioactivity levels in samples submitted for further analysis.

tissue radioactivity concentrations in the majority of tissues analysed ([1]; limit of quantification ca 12-25 ng equivalents spiro-oxindole compound/g): below the limit of quantification
concentration at 24 h ([1]; heart): 17.5 ng/g
concentration at 24 h ([1]; liver): 11.3 ng/g
concentration at 24 h ([1]; skin from the dose site): 1860 ng/g
concentration at 24 h ([1]; white fat): 53.8 ng/g
concentration in liver tissue, individual animals ([2]; G1 (#1-#3): 2% composition, 3.0 μL/cm^2 bid 17 days): 17.0 ng/g and 2.2 ng/g and 14.0 ng/g
concentration in liver tissue, individual animals ([2]; G2 (#4-#6): 4% composition, 3.0 μL/cm^2 bid 17 days): 49.1 ng/g and 29.3 ng/g
concentration in liver tissue, individual animals ([2]; G3 (#7-#9): 8% composition, 3.0 μL/cm^2 bid 17 days): 47.2 ng/g and 48.2 ng/g and 21.6 ng/g
concentration in liver tissue, individual animals ([2]; G4 (#10-#12): 8% composition, 1.0 μL/cm^2 bid 17 days): 0.0 ng/g and 39.1 ng/g and 13.0 ng/g
concentration in liver tissue, individual animals ([2]; G5 (#13-#15): 8% composition, 3.0 μL/cm^2 qd 17 days): 3.6 ng/g and 25.1 ng/g and 0.0 ng/g
Cmax ([3]; male, Göttingen, minipig, plasma, topical or ocular, 70 mg spiro-oxindole compound equivalents ointment/kg, 21 days repeated dermal dosing, read-out: mean maximum observed concentration [Cmax]): 11.7 ng/mL
time post dose at which mean plasma concentrations were maximal ([3]; after last dose (Day 21)): 8 h
apparent steady state achieved ([3]; repeated dermal dosing): between Days 14 and 21
systemic exposure overall (in words) ([3]; repeated dermal dosing): low systemic exposure
potency of the block, inactivated state compared with resting state ([4]; NaV1.7): approximately 220 fold
IC50 ([4]; inactivated state): 0.05 µM
IC50 ([4]; resting state): 11.3 µM
radioactive peaks observed by UPLC ([5]; bile (gall bladder contents)): another two peaks
radioactive peaks observed by UPLC ([5]; urine): two distinct peaks
SMILES: O=C1N(Cc2ccc(C(F)(F)F)o2)c2ccccc2[C@]12COc1cc3c(cc12)OCO3 [spiro-oxindole compound, (S)-1′-{[5-(trifluoromethyl)furan-2-yl]methyl}spiro[furo[2,3-f][1,3]benzodioxole-7,3′-indol]-2′(1′H)one]
